Type in all cases: in vivo, Danio rerio
Series [1] deals with zebrafish embryos. In words: Embryonic lethality of morpholino injected zebrafish embryos. The settings on record: first 4 hours of development. The protocol:
(§1) Morpholino antisense oligonucleotides were designed and purchased from Gene Tools, LLC. To inhibit ttll11 we used a blocking translation SEQ ID NO: 22 MO ([…]) and a standard control SEQ ID NO: 23 MO ([…]) as a negative control. We injected 2.8 ng of morpholino into one-cell stage embryos.
(§2) All capped mRNAs were synthesized using mMessage mMachine SP6 (Ambion, AM1340M). For the rescue experiments, […] of ttll11 mRNA was injected together with the indicated MO. […] of E466G mRNA (ttll11 mutated version) was injected together with the indicated MO as a negative control of the rescue experiments. GFP-Ttll11 mRNA was injected into one-cell stage embryos to visualize protein localization.

In series [2] the test system is zebrafish embryos. In words: Chromosome segregation in blastula stage zebrafish embryos (live and fixed imaging). The protocol:
as §1
Zebrafish embryos at the sphere stage (2.5-4 hpf) were dechorionated and incubated overnight at RT shacking in the microtubule fixative solution (20). The MT-fixative was discarded, and the embryos were put in methanol at −20° C. overnight. After fixation was completed zebrafish embryos were transferred in a clean tube and washed 3 times during 5 min with tergitol at room temperature for rehydration. Embryos were then moved to a well of a 96-well plate and an overnight wash with the anti-autofluorescence buffer (PBS 1×, 100 mM NaBH4) was performed at RT gently shacking. Buffer in the well was changed with TBS 1× for 5 extensive washes.
Embryos underwent the blocking step with TBS 1× with 2% BSA for 30 minutes RT gently shacking. Anti-polyE (1.1 μg/ml, home-made) and -β-tubulin (clone E7; Hybridoma Bank at University of Iowa) primary antibodies were added both at 1:200 dilution and left ON at 4° C. gently shacking. […]
Fixed embryos were imaged in glass bottom Mattek dishes using a 63× oil-immersion 1.4 NA objective on a TCS SP5 inverted Leica confocal microscope. Laser intensity used changed through experiments according to the tubulin levels detected.
For zfTTLL11 localization experiments zebrafish eggs were fertilized, collected and microinjected with zfTTLL11 mRNA with a micromanipulator (M3301R, WPI (World precision instruments). The quantity injected are relative to the ones specified in “Morpholinos, mRNA synthesis and microinjection” section, according to de experiment. Embryos at sphere stage were manually dechorionated and moved in a tube containing low melting agarose at 42° C. diluted in TBS 1× and immediately in a Mattek dish with 7 mm diameter glass bottom and oriented with epithelial layer cells toward the glass slide before the agarose solidified. […]

Series [3] deals with zebrafish embryos. Briefly: Morphological zebrafish analysis at 36 hpf after morpholino injection. How it is done:
as §1, §2
Zebrafish embryos at 36 hpf were anaesthetized with tricaine methane sulfonate (MS-222, Sigma Aldrich) The morphological phenotype was evaluated on site with an Olympus SZX16 scope equipped with an Olympus DP73 camera. Representative images were analyzed with ImageJ.

Where [4] appears, read: 36 hpf, injected at one-cell stage.

The source of these data is patent US20250123267A1, “INHIBITORS OF MICROTUBULE POLYGLUTAMYLATION IN MITOSIS FOR USE AS A MEDICAMENT” (FUNDACIÓ CENTRE DE REGULACIÓ GENÒMICA, priority 2021, published 2025).

As for “MO-1: blocking translation morpholino against zebrafish ttll11, SEQ ID NO: 22 (CGGCTGATTTGTTATCTCATCTAGG) (all phosphorodiamidate morpholino (PMO))”, in series [1], the embryonic lethality result is given as “increase of embryonic lethality”. For the same substance, the “embryos with at least one anaphase cell with a lagging chromosome” value in series [2] (blastula stage, 4D time-lapse imaging) is given as “Most”. The “chromosome segregation fidelity in fixed embryos” value in series [2] (fixed embryos, anaphase cells with lagging chromosomes) was “compromised”. For the same substance, in series [2] (injected embryos), the cells with micronuclei result is given as “many cells with micronuclei”. In series [3] (setting [4]), the “phenotype Frequency Mild (%)” value is given as 28.6%, the “phenotype Frequency Normal (%)” value is 14.3% and the “phenotype Frequency Severe (%)” value stood at 57.1%. Further, the “embryos with developmental defects” value in series [3] (injected embryos, mild tilted tails to gross abnormalities) is 60%.
